Results reported in patent US4526894A, “Pharmaceutically active 4-hydroxy-3-benzoyl-2-quinolone derivatives” (Nippon Shinyaku Co. Ltd., priority 1982, dated 1985).
Structures can show the parent of a compound that is named as a salt. Where two headings read alike, the source gives them in different places.

How the values were obtained:
[1] = test system: passive cutaneous anaphylaxis (DNP-As antigen) in Wister strain rats; assay: passive cutaneous anaphylaxis (PCA) assay in rats; format: in vivo; details: 10 mg/kg oral, one hour before antigen; for inhibition in vivo at 10 mg/kg: Rattus norvegicus, po, 1 h, read-out: PCA Inhibition Ratio %
Experimental: (i) Antiserum abundant in homocytotropic antibody is prepared by the same method as Tada and Okumura did (cf. Journal of Immunology, vol. 106, page 1002, 1976). Thus, 1 mg (calculated as an amount of protein) of DNP-As (2,4-dinitrophenyl-coupled ascaris extract) prepared by methods of Strejan and Campbell (Journal of Immunology, vol. 98, p. 893, 1971) and of Eisen (Journal of Amer. Chem. Soc., vol. 85, p 4593, 1953) and 1×10^10pertussis vaccine are administered to each paw of Wister strain rats (180 to 200 grams body weights) by dividing the dose by four. Five days later, 0.5 mg of DNP-As is administered into muscle of back. Eight days later from the initial immunization, blood is taken from descending aorta under anesthetizing with ether, the resulting serum is stored at -80° and is melted before use.
(ii) Effect of tested compounds is investigated as follows:
Anti-serum obtained by the method (i) is diluted with physiological saline solution double by double successively and 0.05 ml of each diluted solution is administered into back of Wister strain rats (140 to 160 grams body weight) subcutaneously. After 72 hours, a solution of 2 mg (calculated as protein) of DNP-As and 2.5 mg of Evans Blue dissolved in 1 ml of physiological saline solution is administered intraveously at a dose of 5 ml/kg. After 30 minutes from antigen solution administration, the animals are killed and diameters of blue spots appeared at the place where antiserum is administered are measured. The PCA test is conducted by the same method as already described using a diluted solutions of antiserum which always show 10 mm or more of spot diameters and the effect of the test compounds is judged. Thus antiserum diluted solutions are administered to two places in back. Test compounds are administered orally at the dose of 10 mg/kg one hour before administration of antigen solution. From the skin of reacted parts of killed animals, leaked or emitted dyestuff is extracted and the amount of the dyestuff is measured. The inhibition ratio is calculated by the following expression:
Inhibition Ratio=(1-A'/A)×100
in which A' is an amount of dyestuff in the group treated with the test compounds and A is that in the control group.

[2] = test system: SRS-A (slow reacting substance of anaphylaxis); assay: Anti-SRS-A action using isolated ileus of guinea pigs
Experimental: Anti-SRS-As action (An anti-action against slow reacting substance of anaphylaxis).
Hartley strain male guinea pigs (300 to 350 grams body weight) are killed and 1.0 to 1.5 cm of ileus is immeidiately excised from ileocecal parts and is suspended in 10 ml of Tyrode solution (95% O2 -5% CO2 saturation) containing 10^-7 g/ml of atropine and 10^-6 g/ml of pyrilamine. SRS-A (20 units) (the amount of SRS-A showing the same shrinkage as 5 ng of histamine is defined as 1 unit) prepared by using sensitized guinea pig lung is given to cause shrinkage there. Then antagonistic action of test compounds treated five minutes ago against the shrinkage is measured and recorded via isotonic transducer.
Inhibition Ratio of Test Compd (%)=(1-A'/A)×100
in which A' is a height of shrinkage of SRS-A+test compound and A is that of SRS-A.

male mice = assay: Acute oral toxicity in mice (lethal ratio); format: in vivo; details: 400 mg/kg oral, two weeks, four mice per group
Experimental: Acute toxicity was determined two weeks after oral administration of 400 mg/kg to male mice. Four mice (denominator) are used in each group and the dead numbers are given as the numerator. The compounds of the present invention show little, if any, toxicity.
Lethal ratios for all other compounds are 0/4 at doses of […]. It is therefore apparent that they are all safe compounds.

[3] = test system: carrageenin edema in SD-strain rats; assay: Carrageenin edema at hind foot of rats (anti-inflammatory action); format: in vivo, rat; details: for inhibition in vivo at 200 mg/kg: Rattus norvegicus, po, 3 h, read-out: % Inhibition of carrageenin edema
Experimental: The anti-inflammatory action of the compounds of the present invention were evaluated by measuring the inhibition against carrageein edema as set forth below.
Carrageenin edema at hind foot of rats:
SD-strain rats of body weights of around 150 grams were used, each group consisting of five rats. A solution (0.1 ml) of 0.5% carrageenin dissolved in physiological saline water was hypodermically injected into right hind foot pat of the rats and, one hour prior to the injection of carrageenin, 200 mg/kg of test compound was given per os. Foot volumes of the rats before the carrageenin treatment and those of three hours after the treatment were measured and the differences were compared with those of the control group to determine the effect of the compounds.

[4] = 10^-6 M; guinea pig ileus, SRS-A 20 units; 5 min, 1 µM
[5] = 200 mg/kg per os one hour before carrageenin, 3 hours after

SMILES	inhibition in vivo at 10 mg/kg [1] [%]	SRS-A Inhibition Ratio % [2, 4] [%]	inhibition in vivo at 200 mg/kg [3, 5] [%]	other results
COc1ccc(C(=O)c2c(O)c3ccccc3[nH]c2=O)c(OC)c1 [Example 28, 3-(2,4-dimethoxybenzoyl)-4-hydroxy-2-quinolone]	21.2	42.9		
COc1ccc(C(=O)c2c(O)c3ccccc3[nH]c2=O)c(OC)c1OC [Example 32, 4-hydroxy-3-(2,3,4-trimethoxybenzoyl)-2-quinolone]	16.3	100		SRS-A Inhibition Ratio % (value in parentheses) ([2]; 10^-7 M; guinea pig ileus, SRS-A 20 units; 5 min, 0.1 µM): 83.3%; Lethal Ratio (dead/treated) (male mice): 0/4
COc1ccc(C(=O)c2c(O)c3ccc([N+](=O)[O-])cc3[nH]c2=O)c(OC)c1OC [Example 54, 4-hydroxy-7-nitro-3-(2,3,4-trimethoxybenzoyl)-2-quinolone]			13.1	
COC(=O)c1cccc2[nH]c(=O)c(C(=O)c3ccccc3)c(O)c12 [Example 3, Methyl 3-benzoyl-4-hydroxy-2-quinolone-5-carboxylate]	26.9	26.4	32.8	
Cc1ccc2[nH]c(=O)c(C(=O)c3ccccc3)c(O)c2c1 [Example 17, 3-benzoyl-4-hydroxy-6-methyl-2-quinolone]	35.4	21.9		
O=C(c1ccccc1)c1c(O)c2ccc([N+](=O)[O-])cc2[nH]c1=O [Example 10, 3-benzoyl-4-hydroxy-7-nitro-2-quinolone]	33.4	22.3		Lethal Ratio (dead/treated) (male mice): 0/4
CCCCCCc1ccc2[nH]c(=O)c(C(=O)c3ccccc3)c(O)c2c1 [Example 7, 3-Benzoyl-6-n-hexyl-4-hydroxy-2-quinolone sodium salt]				PCA Inhibition Ratio % ([1]; rat, sodium salt, 10 mg/kg): 15.2%; SRS-A Inhibition Ratio % ([2]; 10^-6 M, guinea pig ileus, SRS-A 20 units, 5 min, 1 µM, sodium salt): 91.2%
COc1ccccc1C(=O)c1c(O)c2ccccc2[nH]c1=O [Example 24, 4-hydroxy-3-(2-methoxybenzoyl)-2-quinolone]	24.7	20.2		
O=C(c1cccc(C(F)(F)F)c1)c1c(O)c2ccccc2[nH]c1=O [Example 44, 4-hydroxy-3-(3-trifluoromethylbenzoyl)-2-quinolone]			15.9	
COc1ccc(C(=O)c2c(O)c3cc(C)ccc3[nH]c2=O)cc1OC [Example 29, 3-(3,4-dimethoxybenzoyl)-4-hydroxy-6-methyl-2-quinolone]	12.1	42.1		
O=C(c1ccccc1)c1c(O)c2cc(Cl)ccc2[nH]c1=O [Example 1, 3-Benzoyl-6-chloro-4-hydroxy-2-quinolone]			42.1	
Cc1ccc(C(=O)c2c(O)c3ccccc3[nH]c2=O)c(C)c1 [Example 43, 3-(2,4-dimethylbenzoyl)-4-hydroxy-2-quinolone]			15.7	
O=C(c1ccc([N+](=O)[O-])cc1)c1c(O)c2ccccc2[nH]c1=O [Example 47, 4-hydroxy-3-(4-nitrobenzoyl)-2-quinolone]	49.4	22.0		Lethal Ratio (dead/treated) (male mice): 0/4
O=C(c1ccccc1)c1c(O)c2cccc(C(=O)O)c2[nH]c1=O [Example 16, 3-benzoyl-4-hydroxy-2-quinolone-8-carboxylic acid]	30.9	22.4		Lethal Ratio (dead/treated) (male mice): 0/4
CC(C)c1ccc2[nH]c(=O)c(C(=O)c3ccccc3)c(O)c2c1 [Example 5, 3-Benzoyl-4-hydroxy-6-isopropyl-2-quinoline]			32.1	
Cc1cc2[nH]c(=O)c(C(=O)c3ccccc3)c(O)c2cc1C [Example 20, 3,-benzoyl-6,7-dimethyl-4-hydroxy-2-quinolone]	17.4	23.5		
Cc1cc(C)c2[nH]c(=O)c(C(=O)c3ccccc3Cl)c(O)c2c1 [Example 37, 3-(2-chlorobenzoyl)-6,8-dimethyl-4-hydroxy-2-quinolone]	20.8	28.3		
CC(C)c1ccc2[nH]c(=O)c(C(=O)c3ccccc3Cl)c(O)c2c1 [Example 36, 3-(2-chlorobenzoyl)-4-hydroxy-6-isopropyl-2-quinolone]	12.4	60.0		
O=C(c1ccc(Cl)cc1)c1c(O)c2ccccc2[nH]c1=O [Example 39, 3-(4-chlorobenzoyl)-4-hydroxy-2-quinolone]	19.8	27.0		
CCCCc1ccc2[nH]c(=O)c(C(=O)c3ccccc3)c(O)c2c1 [Example 22, 3-benzoy-6-n-butyl-4-hydroxy-2-quinolone]	17.4	39.5		
CCCCCCc1ccc2[nH]c(=O)c(C(=O)c3ccccc3)c(O)c2c1 [Example 55]	13.6			% Inhibition of carrageenin edema [3, 5]: 10.0%; SRS-A Inhibition Ratio % ([2]; 10^-6 M, guinea pig ileus, SRS-A 20 units, 5 min, 1 µM): 85.6%
CC(C)c1ccc2[nH]c(=O)c(C(=O)c3ccc([N+](=O)[O-])cc3)c(O)c2c1 [Example 48, 4-hydroxy-6-isopropyl-3-(4-nitrobenzoyl)-2-quinolone]	8.6		12.5	
CCCCCc1ccc(C(=O)c2c(O)c3ccccc3[nH]c2=O)cc1 [Example 46, 4-hydroxy-3-(4-n-pentylbenzoyl)-2-quinolone]	3.2	26.9		
CCCCCCc1ccc2[nH]c(=O)c(C(=O)c3ccc(OC)cc3)c(O)c2c1 [Example 59]			12.8	
CC(=O)Oc1ccccc1C(=O)O [Acetylsalicylic Acid, reference compound]				inhibition in vivo at 200 mg/kg [3]: 31.6%
COc1ccc(C(=O)c2c(O)c3ccccc3[nH]c2=O)cc1OC [Example 2, 3-(3,4-Dimethoxybenzoyl)-4-hydroxy-2-quinolone]	25.5	24.2		
O=C(O)c1ccc(C(=O)c2c(O)c3ccccc3[nH]c2=O)cc1 [Example 51, 3-(4-carboxybenzoyl)-4-hydroxy-2-quinolone]	7.4	50.0		
COc1ccc(C(=O)c2c(O)c3cccc(C)c3[nH]c2=O)cc1OC [Example 31, 3-(3,4-dimethoxybenzoyl)-4-hydroxy-8-methyl-2-quinolone]	20.4	20.5	77.5	
Cc1ccc2c(O)c(C(=O)c3ccccc3)c(=O)[nH]c2c1 [Example 18, 3-benzoyl-4-hydroxy-7-methyl-2-quinolone]	26	21.3		
COc1ccc(C(=O)c2c(O)c3ccc([N+](=O)[O-])cc3[nH]c2=O)cc1OC [Example 30, 3-(3,4-dimethoxybenzoyl)-4-hydroxy-7-nitro-2-quinolone]	18.7	26.7	21.3	
